Patent US10906977B2, “Enhancing the therapeutic activity of immune checkpoint inhibitor” (Maine Medical Center Research Institute, priority 2016, dated 2021)

Experiments:
HUVEC = assay: Endothelial cell proliferation with soluble RGD peptides; assay type: cell-based, human; details: 100 ng/ml, 24 hours; FIG. 8C
Description: (§1) HUVECs (WT, shYAP1 or control transfected) or HRMVECs were plated at 2,000 cells per well with complete EGM-2 media containing 2.0% FBS in the absence or presence of P-1, P-2 or P-C (100 ng/ml) and allowed to grow for 24 hours. Cell growth was monitored using a BrdU or MMT assay kits according to manufacturer's instructions. All assays were completed at least three times in triplicate wells.

HRMVEC = assay: as above; assay type: cell-based, human; details: 100 ng/ml, 24 hours; FIG. 8D
Description: as §1

[1] = tested on: endothelial cells transduced with YAP specific or non-specific shRNAs; assay: Growth of shRNA transduced endothelial cells with soluble RGD peptides; assay type: cell-based, human
Description: as §1
Raw cells were transfected with 1 μg of HuSH shRNA plasmids for collagen type I, alpha 2 using Amaxa cell line nucleofector kit V (program #T024). Constructs expressing 21-nucleotide short hairpin RNAs (shRNA) targeting human YAP (shYAP) or non-targeting control (shNT, Sigma-Aldrich, SHC002) were used. Humantargeting shYAP1 lentiviral shRNA was obtained from the Thermo Scientific RNAi consortium (TRCN0000107625). Constructs were packaged into lentivirus, pseudotyped with the vesicular stomatitis virus glycoprotein. Transduction was performed by incubating cells with lentivirus, and stably transduced cells were subsequently used for studies. All cell lines were verified by morphology and mouse and human YAP-specific PCR. […] Endothelial cells were certified mycoplasma-negative by PCR (Lonza), and primary cell cultures were used within the indicated passage numbers. Cells were transduced and selected using puromycin.

LAG3 = assay: Checkpoint molecule expression in human T-cell lines stimulated with collagen peptides (Western blot); assay type: cell-based; details: Jurkat and CCL120.1; FIG. 35
Description: In order to confirm the functional ability of the XL313 cryptic collagen peptide P2 to regulate expression of the immune suppressive checkpoint molecule LAG3, αvβ3 expressing human T-cell lines Jurkat and CCL120.1 were stimulated with the cryptic collagen peptide P2 or control collagen peptides P1 or PC. Whole cell lysates from were analyzed for expression of PD-L1 and beta actin (β-Actin).

Src = Src phosphorylation in endothelial cells attached to collagen peptides (Western blot); assay type: cell-based, human; details: FIG. 7D
Description: Whole cell and CAM tissue lysates were collected in RIPA buffer supplemented with 1× protease inhibitor and 1× phosphatase inhibitor and were run on polyacrylamide gels using denaturing conditions. Prior to loading the gels, 6× sample buffer was added to each of the lysates (final concentration 1×) and boiled for five minutes. Twenty to 50 μg of total protein were loaded into each lane. […] Gels were run at 60 volts (v) until the dye front passed through the stacking gel, and then the voltage was increased to 100V for the remainder of the separation. Precision Plus protein standards (Bio-Rad) were used to visualize migration. Protein was transferred to nitrocellulose membranes using a wet tank system and blocked for 1 h using 10% non-fat dried milk in tris-buffered saline with 0.01% Tween-20 (TBS-T). […] Membranes were washed 3 times in TBS-T for five minutes. Blots were then incubated with HRP conjugated secondary antibodies (1:15000) in 1% non-fat milk in TBS-T for 1 h. Membranes were washed a second time as indicated above and exposed to chemiluminecent substrate for three minutes prior to exposure to autoradiography film in a dark room. Western blot bands were quantified using Image J software based on pixel intensity.

P38MAPK = assay: Phosphorylated P38MAPK in CAM tissue lysates (Western blot); assay type: in vivo, chick; details: peptide treated CAMs; FIG. 6B
Description: The chick chorioallantoic membrane (CAM) assays were carried out with some modifications (19). […] Filter discs either non-treated (inflammation assays) pretreated (angiogenesis assays) with cortisone acetate (3.0 mg/ml) containing RPMI only or FGF-2 (40 ng). CAMs were either non-treated or treated topically with Mab XL313, XL166 or a non-specific control antibody (10 μg/embryo every 24 h for three consecutive treatments). […] At the end of the incubation period the embryos were sacrificed and the CAM tissues were analyzed. Angiogenesis was quantified by counting the number of angiogenic branching blood vessels within the area of the filter disc. The angiogenic index was determined by subtracting the mean number of blood vessel branch points from untreated CAMs from each experimental condition. Eight to twelve embryos were used per condition and experiments were repeated at least three times.
Whole cell and CAM tissue lysates were collected in RIPA buffer supplemented with 1× protease inhibitor and 1× phosphatase inhibitor and were run on polyacrylamide gels using denaturing conditions. Prior to loading the gels, 6× sample buffer was added to each of the lysates (final concentration 1×) and boiled for five minutes. Twenty to 50 μg of total protein were loaded into each lane. […] Western blot bands were quantified using Image J software based on pixel intensity.

Fak = Fak phosphorylation in endothelial cells attached to collagen peptides; assay type: cell-based, human; details: serum free conditions
Description: Whole cell and CAM tissue lysates were collected in RIPA buffer supplemented with 1× protease inhibitor and 1× phosphatase inhibitor and were run on polyacrylamide gels using denaturing conditions. Prior to loading the gels, 6× sample buffer was added to each of the lysates (final concentration 1×) and boiled for five minutes. Twenty to 50 μg of total protein were loaded into each lane. For detection of proteins larger than 50 kD, 10% gels were used; for proteins smaller than 50 kD 15% gels were used. Gels were run at 60 volts (v) until the dye front passed through the stacking gel, and then the voltage was increased to 100V for the remainder of the separation. Precision Plus protein standards (Bio-Rad) were used to visualize migration. Protein was transferred to nitrocellulose membranes using a wet tank system and blocked for 1 h using 10% non-fat dried milk in tris-buffered saline with 0.01% Tween-20 (TBS-T). […] Western blot bands were quantified using Image J software based on pixel intensity.

Question: How did the “HUVEC growth with soluble peptide” value (HUVEC) turn out when CQGPRGDKGEC [Mab P-2] was run?
Answer: enhanced endothelial cell growth

Question: What about the “HRMVEC growth with soluble peptide” value (HRMVEC) of the same sequence?
Answer: enhanced endothelial cell growth

Question: What about the “growth of endothelial cells in which YAP was knocked down” value ([1]; YAP specific shRNA, FIG. 8H) of the same sequence?
Answer: failed to induce growth

Question: What about the “growth of control transduced endothelial cells with soluble peptide” value ([1]; non-specific shRNA, FIG. 8G) of the same sequence?
Answer: enhanced growth

Question: What about the “expression of LAG3 in human T-cells” value (LAG3) of the same sequence?
Answer: induces expression of the immunosuppressive molecule LAG3

Question: And the “levels of PD-L1 in stimulated T-cells as compared to controls” value (LAG3)?
Answer: clear increase in the levels of PD-L1

Question: And the “enhancement of Src phosphorylation as compared to P-1” value (Src)?
Answer: ~2 fold

Question: What about the “increase in phosphorylation of P38MAPK in CAM tissues as compared to controls” value (P38MAPK) of the same sequence?
Answer: 4 fold

Question: And the “Fak phosphorylation following ligation of peptide” value (Fak)?
Answer: Minimal Fak phosphorylation
